From patent US10676780B2, “Stabilisation and isolation of extracellular nucleic acids” (QIAGEN GmbH, priority 2011, dated 2020)
Where a SMILES comes first, the peptide text is derived from it. The star is where a group is joined. Cbz = O=C(OCc1ccccc1)*; CH2Cl = ClC*; CH2F = FC*

Key:
[1] = molecular target: anthrax lethal factor (Bacillus anthracis, UniProt P15917); conditions: cited from earlier work
[2] = system: MCF7 breast cancer cells; conditions: at 20 μM; cited from earlier work
[3] = system: mitochondrial division; conditions: cited from earlier work
[4] = system: etoposide-induced cortical neuron death; conditions: cited from earlier work; for EC50: read-out: ED50 (the source's name)
[5] = neuron culture medium at 37° C.; cited from earlier work
[6] = administered in rats in vivo; cited from earlier work
[7] = system: whole blood samples; assay: DNA size distribution by chip gel electrophoresis of DNA isolated from plasma of stored whole blood; type: cell-based; conditions: for genomic DNA release/fragmentation: day 7, RT; for ladder-like pattern of DNA bands (release/fragmentation of genomic DNA): 20 μM end concentration in 10 ml blood, stored at RT, day 3 and day 7, vs DMSO control and K2E blood
Protocol: A test system was designed, wherein cell-containing biological samples, here whole blood samples, were incubated at room temperature (RT) for up to 6 or 7 days. Therein, the sample stabilizing properties of the additives of the present invention were tested on day 0, day 3 and day 6/7 the samples. The samples were processed according to the following protocols, where applicable (for details, see also the specific examples in the results section):
To separate the blood plasma from the whole blood, the blood samples were centrifuged for 15 min at 5000 rpm, and the obtained plasma samples were again centrifuged for 10 min at 16.000×g at 4° C.
(§1) The circulating, extracellular nucleic acids were purified from the obtained plasma samples using the QIAamp® Circulating NA Kit (according to the handbook). In brief: • 10 ml sample input; • lysis: 1 ml Proteinase K and 8 ml Buffer ACL (QIAGEN) • binding: 18 ml Buffer ACB (QIAGEN) • wash-steps: unchanged and according to handbook • elution in 60 μl Buffer AVE (QIAGEN) 4. Analysis of the Eluates
4.1. Measurement of the blood cell stability/DNA release by the determination of DNA size distribution using a chip gel electrophoresis (2100 Bioanalyzer; Agilent Technologies; Inc., USA) according to manufacturer's instruction (see handbook Agilent DNA 7500 and DNA 12000 Kit Guide), but 1.5 μl instead of 1 μl sample were transferred to the wells.
The eluted circulating cell-free DNA was separated by size using chip gel electrophoresis (for details on the method see above, I, 4.1). […] The DMSO control and the K2E blood (not treated according to the teachings of the present invention) show the same ladder-like pattern of bands. This pattern occurs in samples where apoptosis takes place. During apoptosis, endonucleases degrade genomic DNA at inter-nucleosomal linker regions and produce DNA fragments of circa 180 bp or multiples of 180 bp. Thus, apoptosis occurs in samples which show a clear ladder-like pattern. Furthermore, the strength (darkness) of the pattern is decisive. The darker the bands, the more genomic DNA was released from the cells and thus contaminates the extracellular nucleic acid population.

[8] = system: whole blood samples; assay: ribosomal 18S DNA duplex real time PCR: increase of DNA in plasma of stored whole blood; type: cell-based, human; conditions: for increase of genomic DNA in the plasma (18S DNA duplex assay) / x-fold increase of ribosomal 18S DNA in plasma: within 7 days of storage at RT; for x-fold increase of ribosomal 18S DNA in plasma: 20 μM in 10 ml blood
Protocol: A test system was designed, wherein cell-containing biological samples, here whole blood samples, were incubated at room temperature (RT) for up to 6 or 7 days. Therein, the sample stabilizing properties of the additives of the present invention were tested on day 0, day 3 and day 6/7 the samples.
as §1
4.2. DNA quantification with a real time PCR assay, sensitive for DNA degradation (target: 500 and 66 bp long ribosomal 18S DNA coding sequences).
(samples were diluted 1:10 before amplification)
Detection of ribosomal 18S DNA by quantitative real-time PCR, makes it possible to calculate the x-fold increase of DNA from day 0 to day 3 or 7 (calculation: division of day 3 (or 7) copies by day 0 copies).
The division of short amplicon copy number by long amplicon copy number (66 by/500 bp) indicates whether the amount of detected short or long amplicons changes over time in a similar way. A decrease of this ratio implies a stronger release of longer rather than of shorter DNA molecules and can be interpreted as release of high molecular weight genomic DNA from blood cells.
On day 0, day 3 and day 6, replicates were processed as follows. […] The collected plasma was centrifuged at 16,000×g for 10 minutes at 4° C. The cleared plasma fraction was collected and the extracellular nucleic acids were isolated using the QIAamp Circulating nucleic acid kit (1 ml input material, 60 μl elution volume). […] Values that are close to 1 imply preserved levels of ccfDNA. The higher the value, the less stabilization is achieved.

[9] = molecular target: caspase-8 (Homo sapiens, UniProt Q14790); conditions: cited from earlier work
[10] = molecular target: T1, human recombinant caspase-1 (Homo sapiens, UniProt P29466); conditions: cited from earlier work
T1 sequence (P29466 120-404): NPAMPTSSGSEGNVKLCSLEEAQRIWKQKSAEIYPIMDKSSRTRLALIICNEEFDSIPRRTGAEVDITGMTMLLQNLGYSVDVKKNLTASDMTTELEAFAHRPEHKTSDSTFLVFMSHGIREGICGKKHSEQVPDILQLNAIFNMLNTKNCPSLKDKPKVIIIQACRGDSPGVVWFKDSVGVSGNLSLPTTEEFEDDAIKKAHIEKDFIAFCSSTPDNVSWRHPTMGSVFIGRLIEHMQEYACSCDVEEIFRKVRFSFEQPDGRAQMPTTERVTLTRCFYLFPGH

[11] = molecular target: T2, fragmentin 2 (Rattus norvegicus, UniProt P18291); conditions: read-out: ID50 (the source's name); cited from earlier work
T2 sequence (P18291 21-248): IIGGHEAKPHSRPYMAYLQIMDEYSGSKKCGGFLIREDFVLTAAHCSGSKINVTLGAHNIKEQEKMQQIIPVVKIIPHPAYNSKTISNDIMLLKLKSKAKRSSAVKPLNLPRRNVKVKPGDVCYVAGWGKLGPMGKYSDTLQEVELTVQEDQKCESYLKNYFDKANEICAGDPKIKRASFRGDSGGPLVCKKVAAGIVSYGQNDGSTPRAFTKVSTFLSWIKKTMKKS

[12] = system: Bax-mediated apoptosis; conditions: cited from earlier work
[13] = molecular target: Bax (Bcl-2-associated X protein) (Homo sapiens, UniProt Q07812); conditions: cited from earlier work
Chain of Bax (Bcl-2-associated X protein) (Q07812 whole entry): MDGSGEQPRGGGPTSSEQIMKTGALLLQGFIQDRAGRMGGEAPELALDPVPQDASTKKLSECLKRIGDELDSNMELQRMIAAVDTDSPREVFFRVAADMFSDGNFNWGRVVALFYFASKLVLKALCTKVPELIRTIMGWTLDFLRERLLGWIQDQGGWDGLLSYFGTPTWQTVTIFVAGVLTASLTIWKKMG

Chain of anthrax lethal factor (P15917 34-809 limits assumed): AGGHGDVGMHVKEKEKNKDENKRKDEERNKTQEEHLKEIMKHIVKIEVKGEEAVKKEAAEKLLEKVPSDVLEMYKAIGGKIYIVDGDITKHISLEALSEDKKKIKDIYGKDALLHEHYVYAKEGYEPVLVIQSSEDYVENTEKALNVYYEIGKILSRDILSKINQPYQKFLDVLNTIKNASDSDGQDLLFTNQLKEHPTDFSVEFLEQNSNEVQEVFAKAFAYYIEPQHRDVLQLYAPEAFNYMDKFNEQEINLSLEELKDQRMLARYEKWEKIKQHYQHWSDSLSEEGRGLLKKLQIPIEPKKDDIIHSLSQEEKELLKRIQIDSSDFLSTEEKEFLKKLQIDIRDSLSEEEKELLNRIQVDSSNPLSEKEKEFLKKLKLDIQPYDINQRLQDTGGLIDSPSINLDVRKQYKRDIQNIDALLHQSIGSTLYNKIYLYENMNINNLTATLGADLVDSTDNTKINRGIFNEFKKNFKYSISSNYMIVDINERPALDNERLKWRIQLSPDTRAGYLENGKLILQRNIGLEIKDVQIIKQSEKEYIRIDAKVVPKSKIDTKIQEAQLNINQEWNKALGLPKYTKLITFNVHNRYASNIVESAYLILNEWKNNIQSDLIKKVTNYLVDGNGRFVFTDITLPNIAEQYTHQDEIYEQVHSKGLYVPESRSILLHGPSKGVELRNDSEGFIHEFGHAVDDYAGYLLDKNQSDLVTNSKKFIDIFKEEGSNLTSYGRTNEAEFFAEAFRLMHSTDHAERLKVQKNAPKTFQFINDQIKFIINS
Chain of caspase-8 (Q14790 217-479, species assumed): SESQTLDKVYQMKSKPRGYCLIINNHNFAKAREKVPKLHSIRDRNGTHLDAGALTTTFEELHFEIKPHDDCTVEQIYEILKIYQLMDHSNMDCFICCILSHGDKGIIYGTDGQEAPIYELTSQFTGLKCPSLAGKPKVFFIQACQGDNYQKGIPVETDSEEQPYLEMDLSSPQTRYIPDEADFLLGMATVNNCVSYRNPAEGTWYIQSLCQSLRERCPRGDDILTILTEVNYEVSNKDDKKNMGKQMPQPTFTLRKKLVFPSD

With `FC(F)(F)c1cccc(-c2csc(C3COc4ccccc4O3)n2)c1` (stereo not drawn) [Caspase Inhibitor X] as the compound, how does the effect on activity [1] read?
Its effect on activity is “assisted cleavage of BID, a proapoptotic protein. Weakly affects”.

With `O=C(C=Cc1ccc(C=CC(=O)Nc2ccc(C3=NCCN3)cc2)cc1)Nc1ccc(C2=NCCN2)cc1` [GW 4869] as the compound, how does the “protection against cell death” value [2] read?
Its value is “specific PLC. Reported to offer complete protection against TNF-α”.

Which IC50 [3] does the source give for `COc1cc(-n2c(=S)[nH]c3ccccc3c2=O)c(Cl)cc1Cl` [Mdivi-1, 3-(2,4-Dichloro-5-methoxyphenyl)-2,3-dihydro-2-thioxo-4(1H)-quinazolinone] here?
The IC50 was about 10000 nM.

What does the source list for `O=[N+]([O-])c1ccc(-c2cn3c4c(sc3n2)CCCC4)cc1` [Pifithrin-α, p-Nitro, Cyclic]?
potency relative to Pifithrin-α [4]: A cell-permeable p53 inhibitor that exhibits 10-fold higher potency; EC50 [4]: 30 nM; half-life longer than Pifithrin-α [5]: 50%

Which results are given for `N=c1sc2c(n1CC(=O)c1ccc([N+](=O)[O-])cc1)CCCC2` [Pifithrin-α, p-Nitro]?
EC50 [4]: 300 nM; potency relative to Pifithrin-α [6]: 100-fold more potent than Pifithrin-α when adminstered in rats in

For `CC(C)C(NC(=O)c1ccc2ccccc2n1)C(=O)NC(CC(=O)O)C(=O)COc1c(F)cccc1F` (stereo not drawn) [Q-VD-OPh, Quinoline-Val-Asp-CH2-OPH], which “genomic DNA release/fragmentation” value ([7]; 1 μM caspase inhibitor with 21.4 mM glucose) is on record?
Its value is “significantly reduced the genomic DNA release/fragmentation”.

What about the “genomic DNA release/fragmentation” value ([7]; 4 μM caspase inhibitor with 21.4 mM glucose, compared with 1 μM) of the same compound?
Its value is “improved”.

What about the “ladder-like pattern of DNA bands (release/fragmentation of genomic DNA)” value [7] of the same compound?
Its value is “significantly reduced ladder-like patterns”.

And the “increase of genomic DNA in the plasma (18S DNA duplex assay)” value ([8]; 1 μM in combination with 21 mM glucose)?
Its value is “only a minor increase of genomic DNA”.

What about the “increase of genomic DNA in the plasma (18S DNA duplex assay)” value ([8]; 4 μM in combination with 21 mM glucose) of the same compound?
Its value is at most 4 fold.

What about the “x-fold increase of ribosomal 18S DNA in plasma” value [8] of the same compound?
The value was “reduced increase of DNA”.

With `COC(=O)C[C@H](NC(=O)[C@H](C)NC(=O)[C@@H](NC(=O)OCc1ccccc1)C(C)C)C(=O)CF` [Z-Val-Ala-Asp(OMe)-FMK] (Cbz-Val-Ala-Asp(OMe)-CH2F) as the compound, how does the “ladder-like pattern of DNA bands (release/fragmentation of genomic DNA)” value [7] read?
The value was “reduced ladder-like pattern”.

And the “x-fold increase of ribosomal 18S DNA in plasma” value [8]?
Its value is “more prominent on day 7”.

For `O[C@H]1[C@H](O)[C@@H](O)[C@H](O)[C@@H](O)[C@H]1O` [inositol, Cyclohexane-1,2,3,4,5,6-geksol], which “relative change of ccfDNA level (day X copies/day 0 copies)” value ([8]; concentrations of for example 0.05 M, room temperature up to six days) is on record?
The value was “suitable alternatives”.

Which “relative change of ccfDNA level (day X copies/day 0 copies)” value ([8]; concentrations ≤0.01M, room temperature up to six days) does the source give for `OC[C@@H](O)[C@@H](O[C@H]1O[C@H](CO)[C@@H](O)[C@H](O)[C@H]1O)[C@H](O)[C@@H](O)CO` [maltitol, 4-O-α-D-Glucopyranosyl-D-glucitol] here?
The value was “suitable alternatives”.

For `OCC(O)C(O)C(O)C(O)CO` (stereo not drawn) [mannitol, Hexane-1,2,3,4,5,6-hexol], which “relative change of ccfDNA level (day X copies/day 0 copies)” value ([8]; 0.1, 0.05, 0.01 M tested, room temperature) is on record?
The value was “stabilization effects over 3 days”.

For Ac-IETD-aldehyde, which Ki [9] is on record?
The Ki was 1 nM.

For “Ac-Tyr-Val-Ala-Asp-CHO [Caspase-1 Inhibitor I]”, which Ki [10] is on record?
The Ki was 0.2 nM.

Which IC50 [11] does the source give for “Cbz-Ala-Ala-Asp-CH2Cl [Granzyme B Inhibitor I]” here?
The IC50 was 300 nM.

Which “effective concentration for Bax-mediated apoptosis” value [12] does the source give for “H-Val-Pro-Met-Leu-Lys-OH (H-VPMLK-OH) [Bax-Inhibiting Peptide, V5]” here?
Its value is “mediated apoptosis (~50-200 μM). Also effectively blocks caspase-”.

For “Humanin, Human, Synthetic: A 24-residue anti-apoptotic peptide”, which Kd [13] is on record?
The Kd was about 2 nM.
